Experimental data as given in patent publication US8895474B2, “Herbicidally active cyclopentanediones and derivatives thereof, and their use in controlling weeds” (Syngenta Limited, priority 2009, dated 2014).

Assays:
Assay type in all cases: in vivo
Settings in all cases: 312 h, rate 250 g/ha, evaluated after 13 days, 100=total damage to plant, 0=no damage to plant
[1] = test system: Alopecurus myosuroides (ALOMY); assay: Pre-emergence herbicidal activity, glasshouse pot test
Experimental: (§1) Seeds of a variety of test species were sown in standard soil in pots. After cultivation for one day (pre-emergence) or after 8 days cultivation (post-emergence) under controlled conditions in a glasshouse (at 24/16° C., day/night; 14 hours light; 65% humidity), the plants were sprayed with an aqueous spray solution derived from the formulation of the technical active ingredient in acetone/water (50:50) solution containing 0.5% Tween 20 (polyoxyethelyene sorbitan monolaurate, CAS RN 9005-64-5). The test plants were then grown in a glasshouse under controlled conditions in a glasshouse (at 24/16° C., day/night; 14 hours light; 65% humidity) and watered twice daily. After 13 days for pre and post-emergence, the test was evaluated (100=total damage to plant; 0=no damage to plant). Test Plants: Lolium perenne (LOLPE), Alopecurus myosuroides (ALOMY), Echinochloa crus-galli (ECHCG), and Avena fatua (AVEFA). Pre-Emergence Activity

Avena fatua (AVEFA) [2] = assay: as above
Experimental: as §1

[3] = test system: Echinochloa crus-galli (ECHCG); assay: as above
Experimental: as §1

Lolium perenne (LOLPE) [4] = assay: as above
Experimental: as §1

[5] = test system: Alopecurus myosuroides (ALOMY); assay: Post-emergence herbicidal activity, glasshouse pot test
Experimental: as §1, with “Post-Emergence” for “Pre-Emergence”

Avena fatua (AVEFA) [6] = assay: as above
Experimental: as §1, with “Post-Emergence” for “Pre-Emergence”

[7] = test system: Echinochloa crus-galli (ECHCG); assay: as above
Experimental: as §1, with “Post-Emergence” for “Pre-Emergence”

Lolium perenne (LOLPE) [8] = assay: as above
Experimental: as §1, with “Post-Emergence” for “Pre-Emergence”

CCc1ccc(Oc2ncc(C(F)(F)F)cc2Cl)cc1C1=C(O)C2C(C1=O)[C@H]1CC[C@@H]2CC1 (some centres unmarked) [Compound A-88]
pest or weed control at 250 g/ha [1]: 90% | pest or weed control at 250 g/ha (Avena fatua (AVEFA) [2]): 40% | pest or weed control at 250 g/ha [3]: 100% | pest or weed control at 250 g/ha (Lolium perenne (LOLPE) [4]): 100% | pest or weed control at 250 g/ha [5]: 90% | pest or weed control at 250 g/ha (Avena fatua (AVEFA) [6]): 100% | pest or weed control at 250 g/ha [7]: 100% | pest or weed control at 250 g/ha (Lolium perenne (LOLPE) [8]): 90%

CCc1ccc(Oc2ccc(Br)cc2F)cc1C1=C(O)[C@H]2[C@@H](C1=O)[C@@H]1CC[C@H]2O1 [Compound A-2]
pest or weed control at 250 g/ha [1]: 60% | pest or weed control at 250 g/ha (Avena fatua (AVEFA) [2]): 30% | pest or weed control at 250 g/ha [3]: 60% | pest or weed control at 250 g/ha (Lolium perenne (LOLPE) [4]): 60% | pest or weed control at 250 g/ha [5]: 100% | pest or weed control at 250 g/ha (Avena fatua (AVEFA) [6]): 100% | pest or weed control at 250 g/ha [7]: 100% | pest or weed control at 250 g/ha (Lolium perenne (LOLPE) [8]): 100%

CCc1ccc(Oc2ccc(Br)cc2F)cc1C1=C(O)C2C(C1=O)[C@H]1CC[C@@H]2CC1 (some centres unmarked) [Compound A-34]
pest or weed control at 250 g/ha [1]: 20% | pest or weed control at 250 g/ha (Avena fatua (AVEFA) [2]): 30% | pest or weed control at 250 g/ha [3]: 70% | pest or weed control at 250 g/ha (Lolium perenne (LOLPE) [4]): 50% | pest or weed control at 250 g/ha [5]: 80% | pest or weed control at 250 g/ha (Avena fatua (AVEFA) [6]): 90% | pest or weed control at 250 g/ha [7]: 90% | pest or weed control at 250 g/ha (Lolium perenne (LOLPE) [8]): 40%

CCc1ccc(Oc2ccc(Cl)cc2F)cc1C1=C(O)C2C(C1=O)[C@H]1CC[C@@H]2CC1 (some centres unmarked) [Compound A-32]
pest or weed control at 250 g/ha [1]: 0% | pest or weed control at 250 g/ha (Avena fatua (AVEFA) [2]): 0% | pest or weed control at 250 g/ha [3]: 60% | pest or weed control at 250 g/ha (Lolium perenne (LOLPE) [4]): 40% | pest or weed control at 250 g/ha [5]: 90% | pest or weed control at 250 g/ha (Avena fatua (AVEFA) [6]): 90% | pest or weed control at 250 g/ha [7]: 100% | pest or weed control at 250 g/ha (Lolium perenne (LOLPE) [8]): 30%

CCc1ccc(Oc2ccc3cc(Cl)ccc3n2)cc1C1=C(O)C2C3CCC(CC3)C2C1=O (centres unmarked) [Compound A-53]
pest or weed control at 250 g/ha [1]: 80% | pest or weed control at 250 g/ha (Avena fatua (AVEFA) [2]): 0% | pest or weed control at 250 g/ha [3]: 100% | pest or weed control at 250 g/ha (Lolium perenne (LOLPE) [4]): 80% | pest or weed control at 250 g/ha [5]: 80% | pest or weed control at 250 g/ha (Avena fatua (AVEFA) [6]): 80% | pest or weed control at 250 g/ha [7]: 90% | pest or weed control at 250 g/ha (Lolium perenne (LOLPE) [8]): 90%

CCc1ccc(Oc2ccc(Br)cc2F)cc1C1=C(O)CCC1=O [Compound A-42]
pest or weed control at 250 g/ha [1]: 0% | pest or weed control at 250 g/ha (Avena fatua (AVEFA) [2]): 0% | pest or weed control at 250 g/ha [3]: 30% | pest or weed control at 250 g/ha (Lolium perenne (LOLPE) [4]): 0% | pest or weed control at 250 g/ha [5]: 0% | pest or weed control at 250 g/ha (Avena fatua (AVEFA) [6]): 0% | pest or weed control at 250 g/ha [7]: 70% | pest or weed control at 250 g/ha (Lolium perenne (LOLPE) [8]): 10%

CCc1ccc(Oc2nc3c(Cl)cc(Cl)cc3s2)cc1C1=C(O)CCC1=O [Compound A-77]
pest or weed control at 250 g/ha [1]: 20% | pest or weed control at 250 g/ha (Avena fatua (AVEFA) [2]): 0% | pest or weed control at 250 g/ha [3]: 90% | pest or weed control at 250 g/ha (Lolium perenne (LOLPE) [4]): 20% | pest or weed control at 250 g/ha [5]: 20% | pest or weed control at 250 g/ha (Avena fatua (AVEFA) [6]): 0% | pest or weed control at 250 g/ha [7]: 80% | pest or weed control at 250 g/ha (Lolium perenne (LOLPE) [8]): 30%

CCc1ccc(Oc2cccc(Cl)c2)cc1C1=C(O)[C@H]2[C@@H](C1=O)[C@@H]1CC[C@H]2O1 [Compound A-7]
pest or weed control at 250 g/ha [1]: 60% | pest or weed control at 250 g/ha (Avena fatua (AVEFA) [2]): 50% | pest or weed control at 250 g/ha [3]: 70% | pest or weed control at 250 g/ha (Lolium perenne (LOLPE) [4]): 60% | pest or weed control at 250 g/ha [5]: 60% | pest or weed control at 250 g/ha (Avena fatua (AVEFA) [6]): 80% | pest or weed control at 250 g/ha [7]: 100% | pest or weed control at 250 g/ha (Lolium perenne (LOLPE) [8]): 60%

O=C1CCC(O)=C1c1cc(Oc2ccc(Cl)cc2)ccc1OC(F)(F)F [Compound A-52, 2-[5-(4-chlorophenoxy)-2-trifluoromethoxyphenyl]cyclopentane-1,3-dione]
pest or weed control at 250 g/ha [1]: 0% | pest or weed control at 250 g/ha (Avena fatua (AVEFA) [2]): 0% | pest or weed control at 250 g/ha [3]: 0% | pest or weed control at 250 g/ha (Lolium perenne (LOLPE) [4]): 0% | pest or weed control at 250 g/ha [5]: 0% | pest or weed control at 250 g/ha (Avena fatua (AVEFA) [6]): 0% | pest or weed control at 250 g/ha [7]: 50% | pest or weed control at 250 g/ha (Lolium perenne (LOLPE) [8]): 0%

CCc1ccc(Oc2ncc(Cl)cc2Cl)cc1C1=C(O)C2C(C1=O)[C@H]1CC[C@@H]2CC1 (some centres unmarked) [Compound A-90]
pest or weed control at 250 g/ha [1]: 70% | pest or weed control at 250 g/ha (Avena fatua (AVEFA) [2]): 70% | pest or weed control at 250 g/ha [3]: 100% | pest or weed control at 250 g/ha (Lolium perenne (LOLPE) [4]): 100% | pest or weed control at 250 g/ha [5]: 90% | pest or weed control at 250 g/ha (Avena fatua (AVEFA) [6]): 100% | pest or weed control at 250 g/ha [7]: 100% | pest or weed control at 250 g/ha (Lolium perenne (LOLPE) [8]): 100%
